Tested on in the first test: not listed separately
Description: DRUGMATRIX: Potassium Channel [KATP] radioligand binding (ligand: [3H] Glyburide). It is filed as cell membranes, Membrane. The conditions noted are these: hit-t15; Not Active = under 50% inhibition at 10 µM.
C-C chemokine receptor type 5, sequence (P51681 whole entry): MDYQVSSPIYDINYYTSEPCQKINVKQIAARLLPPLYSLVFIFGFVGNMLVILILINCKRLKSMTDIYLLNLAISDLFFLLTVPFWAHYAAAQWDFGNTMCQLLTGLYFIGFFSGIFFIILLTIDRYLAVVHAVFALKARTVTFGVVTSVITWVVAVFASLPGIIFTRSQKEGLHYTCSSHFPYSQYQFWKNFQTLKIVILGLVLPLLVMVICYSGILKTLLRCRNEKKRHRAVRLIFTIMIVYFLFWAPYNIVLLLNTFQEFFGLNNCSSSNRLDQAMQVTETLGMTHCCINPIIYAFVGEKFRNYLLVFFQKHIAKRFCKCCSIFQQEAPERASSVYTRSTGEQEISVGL
Substance-P receptor, sequence (P25103 whole entry): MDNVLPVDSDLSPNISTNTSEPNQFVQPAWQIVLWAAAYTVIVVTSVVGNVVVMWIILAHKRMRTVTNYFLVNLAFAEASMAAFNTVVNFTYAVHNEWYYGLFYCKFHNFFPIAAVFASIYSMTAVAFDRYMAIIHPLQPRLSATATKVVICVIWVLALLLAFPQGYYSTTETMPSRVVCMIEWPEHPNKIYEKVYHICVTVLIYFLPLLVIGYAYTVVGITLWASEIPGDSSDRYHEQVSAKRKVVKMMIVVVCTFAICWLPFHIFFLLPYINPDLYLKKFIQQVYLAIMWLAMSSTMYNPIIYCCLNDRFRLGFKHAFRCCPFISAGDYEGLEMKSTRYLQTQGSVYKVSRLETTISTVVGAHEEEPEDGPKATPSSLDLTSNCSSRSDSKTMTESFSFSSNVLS
Adenosine receptor A2a, sequence (P29274 whole entry): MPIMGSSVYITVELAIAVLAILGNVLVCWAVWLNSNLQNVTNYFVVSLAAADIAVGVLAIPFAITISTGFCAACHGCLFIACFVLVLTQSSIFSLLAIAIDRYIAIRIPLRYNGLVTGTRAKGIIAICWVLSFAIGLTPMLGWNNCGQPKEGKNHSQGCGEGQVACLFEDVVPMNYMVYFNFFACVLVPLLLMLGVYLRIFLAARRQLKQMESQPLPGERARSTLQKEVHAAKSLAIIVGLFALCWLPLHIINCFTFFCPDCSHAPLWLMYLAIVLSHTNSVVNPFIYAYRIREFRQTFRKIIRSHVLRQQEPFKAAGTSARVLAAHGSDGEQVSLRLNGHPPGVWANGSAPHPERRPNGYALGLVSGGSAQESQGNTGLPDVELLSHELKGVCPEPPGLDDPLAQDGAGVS
Consider `Brc1ccccc1` [BROMOBENZENE], for which the IC50 result was “Not Active” and the Ki entry is reported as “Not Active”.

On to `CC(C)NC[C@H](O)COc1cccc2[nH]ccc12`, for which the IC50 result is listed as “Not Active” and the Ki entry is recorded as “Not Active”.

`CCCSc1ccc2nc(NC(=O)OC)[nH]c2c1` [ALBENDAZOLE]: the IC50 result is listed as “Not Active” and the Ki result is “Not Active”.

As for `Cc1c(-c2ccccc2)oc2c(C(=O)OCCN3CCCCC3)cccc2c1=O` [FLAVOXATE], the IC50 result is reported as “Not Active” and the Ki result is reported as “Not Active”.

In another test the target is Glycine receptor (Rattus norvegicus, UniProt P22771+P24524+P07727+P20781). Note: in other assays of this panel Not Active means under 50% inhibition at 10 µM.
Test: not given
Format: cell membranes, Wistar, Spinal cord, Membrane.
Conditions: not given
For `Brc1ccccc1` [BROMOBENZENE], the IC50 entry is “Not Active”.

Consider `CC(C)NC[C@H](O)COc1cccc2[nH]ccc12`, for which the IC50 entry is reported as “Not Active”.

As for `CCCSc1ccc2nc(NC(=O)OC)[nH]c2c1` [ALBENDAZOLE], the IC50 entry is reported as “Not Active”.

On to `Cc1c(-c2ccccc2)oc2c(C(=O)OCCN3CCCCC3)cccc2c1=O` [FLAVOXATE], for which the IC50 entry is recorded as “Not Active”.

Tested on in a further test: not listed separately
Briefly: DRUGMATRIX: GABAA, Muscimol, Central radioligand binding (ligand: [3H] Muscimol). It is filed as cell membranes, Rattus norvegicus, Wistar, Brain, Membrane. The conditions noted are these: Not Active = under 50% inhibition at 10 µM.
For the compound `Brc1ccccc1` [BROMOBENZENE], the IC50 entry is “Not Active” and the Ki entry is “Not Active”.

Regarding `CC(C)NC[C@H](O)COc1cccc2[nH]ccc12`, the IC50 result was “Not Active” and the Ki result was “Not Active”.

Take `CCCSc1ccc2nc(NC(=O)OC)[nH]c2c1` [ALBENDAZOLE]: the IC50 entry is reported as “Not Active” and the Ki result is recorded as “Not Active”.

As to `Cc1c(-c2ccccc2)oc2c(C(=O)OCCN3CCCCC3)cccc2c1=O` [FLAVOXATE], the IC50 entry is reported as “Not Active” and the Ki result is given as “Not Active”.

Tested on in a further test: not listed separately
Briefly: DRUGMATRIX: Interleukin IL-1 radioligand binding (ligand: [125I] interleukin 1beta). It is filed as cell membranes, Membrane. Particulars: nih3t3; Not Active = under 50% inhibition at 10 µM.
For `Brc1ccccc1` [BROMOBENZENE], the IC50 entry was “Not Active” and the Ki entry is reported as “Not Active”.

As to `CC(C)NC[C@H](O)COc1cccc2[nH]ccc12`, the IC50 entry was “Not Active” and the Ki result is “Not Active”.

For `CCCSc1ccc2nc(NC(=O)OC)[nH]c2c1` [ALBENDAZOLE], the IC50 entry is “Not Active” and the Ki result was “Not Active”.

`Cc1c(-c2ccccc2)oc2c(C(=O)OCCN3CCCCC3)cccc2c1=O` [FLAVOXATE]: the IC50 entry was “Not Active” and the Ki result was “Not Active”.

The target of the next test is Mitogen-activated protein kinase 3 (Homo sapiens, UniProt P27361). Description: DRUGMATRIX: Protein Serine/Threonine Kinase, ERK1 enzyme inhibition (substrate: Myelin Basic Protein). On the set-up: species or system Escherichia coli. Particulars: Not Active = under 50% inhibition at 10 µM.
Mitogen-activated protein kinase 3, sequence (P27361 whole entry): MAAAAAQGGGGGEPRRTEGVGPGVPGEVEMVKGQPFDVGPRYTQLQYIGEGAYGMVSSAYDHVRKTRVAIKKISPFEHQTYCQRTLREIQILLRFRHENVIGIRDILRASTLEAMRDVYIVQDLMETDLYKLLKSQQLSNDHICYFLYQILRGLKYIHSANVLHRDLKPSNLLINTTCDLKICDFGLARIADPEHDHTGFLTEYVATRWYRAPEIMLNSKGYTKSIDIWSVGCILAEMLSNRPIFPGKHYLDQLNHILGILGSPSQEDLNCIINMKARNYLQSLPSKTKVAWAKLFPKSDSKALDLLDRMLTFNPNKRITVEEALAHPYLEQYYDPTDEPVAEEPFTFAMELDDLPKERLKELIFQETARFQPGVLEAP
As for `Brc1ccccc1` [BROMOBENZENE], the IC50 result is given as “Not Active”.

Take `CC(C)NC[C@H](O)COc1cccc2[nH]ccc12`: the IC50 result is “Not Active”.

As to `CCCSc1ccc2nc(NC(=O)OC)[nH]c2c1` [ALBENDAZOLE], the IC50 result is reported as “Not Active”.

Take `Cc1c(-c2ccccc2)oc2c(C(=O)OCCN3CCCCC3)cccc2c1=O` [FLAVOXATE]: the IC50 result was “Not Active”.

The next test concerns the target T1, Calcitonin receptor (Homo sapiens, UniProt P30988). Note: in other assays of this panel Not Active means under 50% inhibition at 10 µM.
T1 sequence (P30988 whole entry): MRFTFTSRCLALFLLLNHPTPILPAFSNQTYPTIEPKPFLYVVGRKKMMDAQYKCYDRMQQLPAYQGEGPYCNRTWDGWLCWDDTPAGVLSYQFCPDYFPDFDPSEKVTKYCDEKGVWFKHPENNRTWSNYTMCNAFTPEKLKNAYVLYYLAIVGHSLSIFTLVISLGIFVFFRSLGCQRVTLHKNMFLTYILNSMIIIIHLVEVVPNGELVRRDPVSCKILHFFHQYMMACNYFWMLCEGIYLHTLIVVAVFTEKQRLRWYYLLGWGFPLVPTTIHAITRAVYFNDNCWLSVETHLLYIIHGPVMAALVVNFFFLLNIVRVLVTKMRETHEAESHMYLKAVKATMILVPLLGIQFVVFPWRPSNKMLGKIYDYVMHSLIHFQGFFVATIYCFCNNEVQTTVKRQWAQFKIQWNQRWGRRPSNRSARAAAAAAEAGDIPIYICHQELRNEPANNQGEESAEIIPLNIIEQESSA
Test: not given
Format: cell membranes, Membrane. Particulars: t47d.
Regarding `Brc1ccccc1` [BROMOBENZENE], the IC50 entry is given as “Not Active”.

Regarding `CC(C)NC[C@H](O)COc1cccc2[nH]ccc12`, the IC50 result was “Not Active”.

Turning to `CCCSc1ccc2nc(NC(=O)OC)[nH]c2c1` [ALBENDAZOLE], the IC50 result is on record as “Not Active”.

For the compound `Cc1c(-c2ccccc2)oc2c(C(=O)OCCN3CCCCC3)cccc2c1=O` [FLAVOXATE], the IC50 result was “Not Active”.

A further test addresses T2, Substance-K receptor (Homo sapiens, UniProt P21452).
T2 sequence (P21452 whole entry): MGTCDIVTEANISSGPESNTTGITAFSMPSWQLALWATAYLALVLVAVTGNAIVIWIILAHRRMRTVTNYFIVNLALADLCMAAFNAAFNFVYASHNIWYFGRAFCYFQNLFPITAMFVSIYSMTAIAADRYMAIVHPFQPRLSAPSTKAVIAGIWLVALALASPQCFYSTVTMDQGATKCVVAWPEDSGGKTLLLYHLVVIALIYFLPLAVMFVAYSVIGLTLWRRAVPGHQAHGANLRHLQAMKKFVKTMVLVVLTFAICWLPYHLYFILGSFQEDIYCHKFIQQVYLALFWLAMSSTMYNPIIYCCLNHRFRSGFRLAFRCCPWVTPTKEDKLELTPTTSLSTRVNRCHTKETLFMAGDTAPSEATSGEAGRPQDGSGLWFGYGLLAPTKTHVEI
Test: not given
The conditions noted are these: cho. It is filed as cell membranes, CHO, Membrane.
For the compound `Brc1ccccc1` [BROMOBENZENE], the IC50 entry is on record as “Not Active”.

Turning to `CC(C)NC[C@H](O)COc1cccc2[nH]ccc12`, the IC50 result is reported as “Not Active”.

Consider `CCCSc1ccc2nc(NC(=O)OC)[nH]c2c1` [ALBENDAZOLE], for which the IC50 entry is “Not Active”.

With `Cc1c(-c2ccccc2)oc2c(C(=O)OCCN3CCCCC3)cccc2c1=O` [FLAVOXATE], the IC50 result is listed as “Not Active”.

Tested on in a further test: not listed separately
Description: DRUGMATRIX: Nicotinic Acetylcholine radioligand binding (ligand: [125I] Epibatidine). Particulars: imr-32; Not Active = under 50% inhibition at 10 µM. It is filed as cell membranes, Membrane.
As to `Brc1ccccc1` [BROMOBENZENE], the IC50 entry is “Not Active” and the Ki entry was “Not Active”.

On to `CC(C)NC[C@H](O)COc1cccc2[nH]ccc12`, for which the IC50 entry is “Not Active” and the Ki entry is recorded as “Not Active”.

Turning to `CCCSc1ccc2nc(NC(=O)OC)[nH]c2c1` [ALBENDAZOLE], the IC50 entry is listed as “Not Active” and the Ki result is given as “Not Active”.

Turning to `Cc1c(-c2ccccc2)oc2c(C(=O)OCCN3CCCCC3)cccc2c1=O` [FLAVOXATE], the IC50 entry is reported as “Not Active” and the Ki entry is recorded as “Not Active”.

The next test concerns the target T3, Angiotensin-converting enzyme (Oryctolagus cuniculus, UniProt P12822).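 Note: enzymatic inhibition of angiotensin-converting enzyme measured with FAPGG as the substrate; in other assays of this panel Not Active means under 50% inhibition at 10 µM.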
T3 sequence (P12822 whole entry): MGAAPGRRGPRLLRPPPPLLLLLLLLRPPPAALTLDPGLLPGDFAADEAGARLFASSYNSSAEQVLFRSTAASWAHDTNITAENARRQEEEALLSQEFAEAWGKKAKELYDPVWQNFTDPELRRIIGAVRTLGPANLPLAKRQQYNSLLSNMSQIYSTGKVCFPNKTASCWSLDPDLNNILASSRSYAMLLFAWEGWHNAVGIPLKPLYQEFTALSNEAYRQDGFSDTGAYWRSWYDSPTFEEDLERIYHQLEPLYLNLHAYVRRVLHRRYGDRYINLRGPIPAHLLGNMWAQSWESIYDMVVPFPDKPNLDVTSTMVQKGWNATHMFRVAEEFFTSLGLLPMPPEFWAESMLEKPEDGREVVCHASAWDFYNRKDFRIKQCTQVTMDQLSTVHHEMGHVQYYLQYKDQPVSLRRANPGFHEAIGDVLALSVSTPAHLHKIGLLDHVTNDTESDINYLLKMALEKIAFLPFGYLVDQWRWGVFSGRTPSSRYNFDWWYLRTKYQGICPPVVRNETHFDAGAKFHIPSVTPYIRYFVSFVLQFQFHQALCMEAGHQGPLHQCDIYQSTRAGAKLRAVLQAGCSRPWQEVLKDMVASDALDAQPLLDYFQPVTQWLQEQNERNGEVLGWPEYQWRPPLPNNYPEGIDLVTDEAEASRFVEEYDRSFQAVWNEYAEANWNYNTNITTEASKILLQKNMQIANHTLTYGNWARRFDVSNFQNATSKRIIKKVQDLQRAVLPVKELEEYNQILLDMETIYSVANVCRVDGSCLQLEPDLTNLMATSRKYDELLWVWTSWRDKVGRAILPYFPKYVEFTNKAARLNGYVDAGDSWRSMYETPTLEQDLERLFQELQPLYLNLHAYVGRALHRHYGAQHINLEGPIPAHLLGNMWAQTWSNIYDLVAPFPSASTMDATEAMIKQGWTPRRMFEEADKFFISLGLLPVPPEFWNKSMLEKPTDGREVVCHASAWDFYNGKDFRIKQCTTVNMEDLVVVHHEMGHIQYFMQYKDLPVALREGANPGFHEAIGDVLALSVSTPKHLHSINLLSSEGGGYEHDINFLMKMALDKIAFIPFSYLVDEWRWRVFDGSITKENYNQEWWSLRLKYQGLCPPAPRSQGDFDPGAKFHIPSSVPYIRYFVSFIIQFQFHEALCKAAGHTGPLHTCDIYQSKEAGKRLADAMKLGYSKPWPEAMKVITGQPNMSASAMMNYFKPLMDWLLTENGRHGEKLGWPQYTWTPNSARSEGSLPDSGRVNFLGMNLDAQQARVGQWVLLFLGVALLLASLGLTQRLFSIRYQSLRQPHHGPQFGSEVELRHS
Briefly: biochemical. It is filed as tissue-based, Lung.
Conditions: not given
Consider `Brc1ccccc1` [BROMOBENZENE], for which the IC50 entry is recorded as “Not Active”.

In the case of `CC(C)NC[C@H](O)COc1cccc2[nH]ccc12`, the IC50 result is given as “Not Active”.

`CCCSc1ccc2nc(NC(=O)OC)[nH]c2c1` [ALBENDAZOLE]: the IC50 entry is recorded as “Not Active”.

As to `Cc1c(-c2ccccc2)oc2c(C(=O)OCCN3CCCCC3)cccc2c1=O` [FLAVOXATE], the IC50 entry is given as “Not Active”.

A further test concerns the target Adenosine receptor A2a (Homo sapiens, UniProt P29274). Briefly: DRUGMATRIX: Adenosine A2A radioligand binding (ligand: […]). It is filed as cell membranes, HEK293, Membrane. The conditions noted are these: hek293; Not Active = under 50% inhibition at 10 µM.
For the compound `Brc1ccccc1` [BROMOBENZENE], the IC50 result is listed as “Not Active”.

As to `CC(C)NC[C@H](O)COc1cccc2[nH]ccc12`, the IC50 entry is reported as “Not Active”.

With `CCCSc1ccc2nc(NC(=O)OC)[nH]c2c1` [ALBENDAZOLE], the IC50 result is recorded as “Not Active”.

As for `Cc1c(-c2ccccc2)oc2c(C(=O)OCCN3CCCCC3)cccc2c1=O` [FLAVOXATE], the IC50 entry is reported as “Not Active”.

A further test has as its target Substance-P receptor (Homo sapiens, UniProt P25103). Note: in other assays of this panel Not Active means under 50% inhibition at 10 µM.
Test: not given
Format: cell membranes, CHO, Membrane. Particulars: cho.
Regarding `Brc1ccccc1` [BROMOBENZENE], the IC50 entry is “Not Active”.

As to `CC(C)NC[C@H](O)COc1cccc2[nH]ccc12`, the IC50 result was “Not Active”.

Take `CCCSc1ccc2nc(NC(=O)OC)[nH]c2c1` [ALBENDAZOLE]: the IC50 entry was “Not Active”.

Consider `Cc1c(-c2ccccc2)oc2c(C(=O)OCCN3CCCCC3)cccc2c1=O` [FLAVOXATE], for which the IC50 entry is recorded as “Not Active”.

Another test addresses C-C chemokine receptor type 5 (Homo sapiens, UniProt P51681).
Test: not given
It is filed as cell membranes, Membrane. Particulars: hek293.
Take `Brc1ccccc1` [BROMOBENZENE]: the IC50 entry is recorded as “Not Active”.

For the compound `CC(C)NC[C@H](O)COc1cccc2[nH]ccc12`, the IC50 entry was “Not Active”.

As to `CCCSc1ccc2nc(NC(=O)OC)[nH]c2c1` [ALBENDAZOLE], the IC50 result is “Not Active”.

Turning to `Cc1c(-c2ccccc2)oc2c(C(=O)OCCN3CCCCC3)cccc2c1=O` [FLAVOXATE], the IC50 result is “Not Active”.

For the origin of these results see ChEMBL document CHEMBL1909046, “DrugMatrix in vitro pharmacology data”.
